Assays:
[1] = system: Renin mRNA in As4.1 cells; test: Renin mRNA in As4.1 cells transfected with pcDNA-hVDR (real-time RT-PCR); format: cell-based
Protocol: As4.1 cells (ATCC, Manassas, Va.) were cultured in Dulbecco's Modified Eagle Medium DMEM (commercially available from Invitrogen, Carlsbad, Calif.) with 10% fetal bovine serum at 37° C. in a humidified 5% CO2-95% air atmosphere. C3;ells were transfected with the pcDNA-hVDR plasmid (provided by Yan Chun Li, University of Chicago) by LIPOFECTAMINE™ 2000 (Invitrogen, Carlsbad, Calif.). siRNA was transfected with the pcDNA-hVDR plasmid by LIPOFECTAMINE™ 2000 according to the manufacturer's protocol. Twenty-four hours after transfection, cells were treated with test agents.
Real-time reverse transcription-PCR was performed with a MyiQ Real-time PCR Detection System (commercially available from BioRad, Hercules, Calif.). […] TaqMan™ probes that were 5′ labeled with the reporter 6-carboxyfluorescein (FAM) and 3′ labeled with the quencher tetramethylrhodamine (TAMRA) were used and the primer and probe sets were obtained from Applied Biosystems (Foster City, Calif.). Temperature conditions consisted of a step of 5 minutes at 95° C., followed by 45 cycles of 60° C. for 1 minute and 95° C. for 15 seconds. Data was collected during each extension phase of the PCR reaction and analyzed with the accompanying software package (BioRad, Hercules, Calif.). Threshold cycles were determined for each gene.

[2] = system: Human promyelocytic leukemia (HL60) cells; test: HL-60 Differentiation; format: cell-based; details: HL-60, 96 h, four days incubation, NBT, absorbance 570 nm
Protocol: Human promyelocytic leukemia (HL60) cells were obtained from the American Type Culture Collection (ATCC Cat. # CCL-240, Manassas, Va.). Cells were maintained in RPMI 1640 medium (commercially available from Invitrogen, Carlsbad, Calif.) containing 10% fetal bovine serum (commercially available from Invitrogen, Carlsbad, Calif.) at 37° C. with 5% CO2. Cells were passaged weekly and were not allowed to become >90% confluent. For the assay, cells were plated at 5×10^5 cells per well in 200 uL media. Test compounds were diluted in media in concentrations between 10^−6-10^−10 M and then added to the appropriate wells. Cells were then incubated for four days at 37° C. in 5% CO2 atmosphere. After incubation, media was aspirated from each well and 75 uL of NBT solution (nitroblue tetrazolinium: 200 ng/mL PMA (phorbol 12-myrystate 13-acetate) and 2 mg/ml NBT (nitroblue tetrazolium) in distilled H2O) was added to each well followed by further incubation for 2 hours at 37° C. Following incubation, 150 uL lysis buffer (225 mL dimethylformamide, 67.5 g SDS). PMA stock solution (2 mg/ml in ethanol) was added to each well and the plate was allowed to sit at room temperature for 4 hours. HL-60 cell differentiation was assayed, Effect of each compound on cell growth was examined as a function of time; absorbance in each well was measured at 570 nm.

5/6 NX uremic rats = test: Study 2: left ventricular hypertrophy (LVH) in 5/6 NX uremic rats; format: in vivo, rat; details: 1, 10 and 100 μg/kg, 3×/wk for 6 wks
Protocol: Study 2: To determine if treatment with Example 1 (1, 10 & 100 μg/kg) reduces left ventricular hypertrophy (LVH) in 5/6 NX uremic rats.
Methods: Previous studies have shown that the 5/6 NX rat is hypertensive and presents with left ventricular hypertrophy. Therefore, 5/6 NX rats were received from Charles River at 2 weeks uremia and fed TD04151 (0.6% Ca and 0.9 % P) 4 weeks prior to study. 5/6 NX rats were treated with Example 1 (1, 10 & 100 μg/kg) or vehicle (95% PG/5% EtOH) 3×/week for six weeks. On Days 0, 13 and 41 blood was drawn (24 hours post-dose). At the end of the six week treatment period, rats were anesthetized with isoflurane and echocardiography was performed. Left ventricular mass was determined according to the American Society of Echocardiography recommendations using the cube method. After euthanasia, direct measurements of left ventricular weight were obtained. Note: Vehicle treated SHAM and 5/6 NX rats (3×/week for six weeks) from previous studies were included in this study for comparison purposes. All values are mean±SEM. Data was analyzed using ANOVA and where noted t-test. * Indicates p<0.05 compared to SHAM.

Male, C57BL6, mice = test: Normal Mouse Calcemia Model; format: in vivo
Protocol: Male, C57BL6, mice were obtained from Jackson Laboratories. The mice were habituated for four days while maintained on a normal diet (D10001, Research Diets Inc.). Treatment was initiated with vehicle (20% ethanol/30% propylene glycol/50% water, 0.05 mL, s.c.) or test agent administered over a three log dose range. The animals were dosed once daily for 3 days. Twenty-four hours after the last dose, animals were anesthetized with ketamine/xylazine (100/18 mg/kg) and bled by cardiac puncture for measurement of PTH and other end points.
Measurement of PTH and minerals: Calcium (Ca), serum phosphorus (Pi), creatinine and BUN were measured from serum using an Abbott Aeroset® (Abbott Laboratories, Abbott Park, Ill.). Blood ionized calcium (iCa) was determined using the i-STAT® system (Abbott Laboratories, East Windsor, N.J.). Serum PTH was measured using a mouse parathyroid hormone (PTH) EIA kit obtained from ALPCO/Immutopics, Inc. (Windham, N.H.). Selected data is shown is Table 6. The graphs in FIG. 4 give an indication of dose response. Notable is that Example 1 produced an approximately 30% reduction in PTH over at least a three log dose range without a concomitant elevation of serum calcium of greater than 1 mg/dL.
Data analysis: Mean±standard error of the mean was calculated for each group. One way ANOVA followed by a Dunnett's test was used to assess differences between vehicle and drug-treated groups. *p<0.05=significance.

[3] = system: PAI-1 mRNA in human coronary artery smooth muscle cells (CASMC); test: PAI-1 mRNA in CASMC; format: cell-based; details: Homo sapiens
Protocol: Primary culture of human coronary artery smooth muscle cells (CASMC) (commercially available from Cambrex, Walkersville, Md.) were grown in smooth muscle growth medium SmGM-2 (commercially available from Lonza Bioscience) containing 5.5 mM glucose, 5% FBS, 50 μg/ml gentamicin, 50 ng/ml amphotericin-B, 5 μg/ml insulin, 2 ng/ml human recombinant fibroblast growth factor (hFGF), and 0.5 ng/ml human recombinant epidermal growth factor (hEGF) at 37° C. in a humidified 5% CO2-95% air atmosphere. Cells were grown to >80% confluence and used within five passages.
Real-time reverse transcription-PCR was performed with a MyiQ Real-Time PCR Detection System (BioRad, Hercules, Calif.). Each sample has a final volume of 25 μl containing 100 ng of cDNA, […] each of the forward and reverse PCR primers and […] of the TaqMan™ probe for the gene of interest (Applied Biosystems, Foster City, Calif.). Temperature conditions consisted of a step of 5 minutes at 95° C., followed by 40 cycles of 60° C. for 1 minute and 95° C. for 15 seconds. Data was collected during each extension phase of the PCR reaction and analyzed with the software package (BioRad, Hercules, Calif.). Threshold cycles were determined for each gene. […]

[4] = over at least a three log dose range

IC50 [1]: 0.3 nM
EC50 [2]: 1.9 nM
concomitant elevation of serum calcium (Male, C57BL6, mice; [4]): ≤ 1 mg/dL
1 mg/dL Δ total Ca (Male, C57BL6, mice; s.c. once daily for 3 days, dose giving 1 mg/dL change in total Ca): >100 µg/kg
IC50 [3]: 0.01 nM
Structure (SMILES): C=C1[C@H](O)CC(=C/C=C2\CCC[C@]3(C)[C@@H]([C@H](C)COC(=O)C(C)(C)C)CC[C@@H]23)C[C@H]1O [Example 1, (2S)-2-[(1R,3R,7E, 17β)-1,3-dihydroxy-2-methylene-9,10-secoestra-5,7-dien-17-yl]propyl pivalate]
exacerbation of LVH compared to controls (5/6 NX uremic rats): no exacerbation
reduction in PTH (Male, C57BL6, mice; [4]): approximately 30%
ED50 (Male, C57BL6, mice; sc, 72 h, s.c. once daily for 3 days, read-out: PTH ED50): 0.0105 mg/kg

From US8377913B2, “Vitamin D receptor activators and methods of making” (AbbVie Inc., priority 2007, dated 2013)
